Measurements reported in PMC6925622 (Clinical pharmacology and therapeutics, 2019).
Converted amounts (≈) assume the structure as drawn. “And” between values parts separate entries of the source, which are not always exact repeats. Equal values may be shown once.

Experiments:
CYP3A5 and CYP3A4 = details: preferentially inhibits CYP3A4; cited from earlier work
CYP3A5 [1] = details: cited from earlier work
CYP3A4 = details: midazolam is the CYP3A probe, cited from earlier work
CYP3A5 [2] = details: midazolam is the CYP3A probe, cited from earlier work
CYP3A4/5 = test: Clinical midazolam-ketoconazole interaction study; format: in vivo, human; details: for CLpo (oral clearance) / Cmax /Dose: oral midazolam
[3] = cited from earlier work
[4] = Clinical study control phase: midazolam pharmacokinetics by CYP3A5 genotype; format: in vivo, human; details: for Clearance Oral GM (90% CI): Observed, single dose of midazolam, blood clearance; for clearance: iv, 0.05 mg/kg, CLsys (systemic clearance), IV midazolam; for clearance / bioavailability / Tmax / half-life / CLpo (oral clearance) / Cmax /Dose: midazolam alone (control); for bioavailability: Fpo (oral bioavailability); for Tmax / CLpo (oral clearance) / Cmax /Dose: oral midazolam; for half-life: t1/2 (terminal half-life); for intestinal availability (FG): midazolam alone
[5] = human, serum, geometric mean, CYP3A5*1/*1 (n=6)
[6] = human, serum, geometric mean, CYP3A5*1/*3 and *1/*6 (n=9)
[7] = human, serum, geometric mean, CYP3A5*3/*3 non-expressers (n=8)
[8] = human, serum, geometric mean, CYP3A5 expressers (n=15)
[9] = human, serum, CYP3A5*3/*7 (n=1)
[10] = geometric mean, CYP3A5*1/*1 (n=6)
[11] = geometric mean, CYP3A5*1/*3 and *1/*6 (n=9)
[12] = geometric mean, CYP3A5 expressers (n=15)
[13] = after 200 mg KTZ, CYP3A5*3/*7 (n=1)
[14] = after 400 mg KTZ, CYP3A5*3/*7 (n=1)
[15] = geometric mean, after 200 mg KTZ, CYP3A5*3/*3 non-expressers
[16] = geometric mean, after 200 mg KTZ, CYP3A5 expressers
[17] = geometric mean, after 400 mg KTZ, CYP3A5*1/*1
[18] = geometric mean, after 400 mg KTZ, CYP3A5*1/*3 and *1/*6
[19] = geometric mean, after 400 mg KTZ, CYP3A5*3/*3 non-expressers
[20] = geometric mean, after 400 mg KTZ, CYP3A5 expressers

CCC(C)n1ncn(-c2ccc(N3CCN(c4ccc(OCC5COC(Cn6cncn6)(c6ccc(Cl)cc6Cl)O5)cc4)CC3)cc2)c1=O (centres unmarked) [Itraconazole]
Ki,3A5/Ki,3A4 (CYP3A5 and CYP3A4): ≥ 7

OC(Cn1cncn1)(Cn1cncn1)c1ccc(F)cc1F [fluconazole]
changes of midazolam metabolites formation across CYP3A5 genotypes (CYP3A5 [1]): did not result in differential changes

CC(=O)N1CCN(c2ccc(OCC3COC(Cn4ccnc4)(c4ccc(Cl)cc4Cl)O3)cc2)CC1 (centres unmarked) [ketoconazole]
Ki towards CYP3A4 (CYP3A4): […] | Ki (CYP3A4; read-out: Ki towards CYP3A4): […] | Ki towards CYP3A5 (CYP3A5 [2]): […] | Ki (CYP3A5 [2]; read-out: Ki towards CYP3A5): […] | difference in the AUC0–10hr of ketoconazole between the 6th and 7th day of dosing (CYP3A4/5; ketoconazole 200 mg or 400 mg): no significant difference | inhibition of gut CYP3A (CYP3A4/5; ketoconazole 200 and 400 mg doses): almost complete inhibition

Cc1ncc2n1-c1ccc(Cl)cc1C(c1ccccc1F)=NC2 [midazolam]
midazolam FG in SimCYP ([3]; derived using plasma clearance and hepatic plasma flow): 0.57 | inter-individual variability of midazolam clearance in other studies ([3]; other studies): 3.3- to 5.2 fold | Clearance Oral GM (90% CI) ([4]; CYP3A5 expressers): 140 (114.5–171.3) L/hr | Clearance Oral GM (90% CI) ([4]; CYP3A5 non-expressers): 105 (83.5–131.5) L/hr | clearance [4, 5]: 540 mL/min | clearance [4, 6]: 550 mL/min | clearance [4, 7]: 402 mL/min | clearance [4, 8]: 547 mL/min | clearance [4, 9]: 318 mL/min | bioavailability ([4]; human, serum, po, 4 mg, geometric mean, CYP3A5*1/*1 (n=6)): 22% | bioavailability ([4]; human, serum, po, 4 mg, geometric mean, CYP3A5*1/*3 and *1/*6 (n=9)): 23% | bioavailability ([4]; human, serum, po, 4 mg, geometric mean, CYP3A5*3/*3 non-expressers (n=8)): 26% | bioavailability ([4]; human, serum, po, 4 mg, geometric mean, CYP3A5 expressers (n=15)): 23% | bioavailability ([4]; human, serum, po, 4 mg, CYP3A5*3/*7 (n=1)): 36% | Tmax ([4]; human, serum, po, 4 mg, Tmax, CYP3A5*3/*7 (n=1)): 1 h | half-life [4, 5]: 2.76 h | half-life [4, 6]: 2.75 h | half-life [4, 7]: 3.05 h | half-life [4, 8]: 2.75 h | half-life [4, 9]: 5.25 h | intestinal availability (FG) ([4]; CYP3A5 expressers): 0.35±0.09 | intestinal availability (FG) ([4]; CYP3A5 non-expressers): 0.33±0.06 | CLpo (oral clearance) [4, 10]: 144 L/h | Cmax /Dose [4, 10]: 1.5 ng/mL | CLpo (oral clearance) [4, 11]: 137 L/h | Cmax /Dose [4, 11]: 1.6 ng/mL | CLpo (oral clearance) [4, 12]: 140 ± 66 L/h and 140 L/h | Cmax /Dose [4, 12]: 1.6 ± 0.6 ng/mL and 1.6 ng/mL | CLpo (oral clearance) ([4]; CYP3A5*3/*7 (n=1)): 55.7 L/h | Cmax /Dose ([4]; CYP3A5*3/*7 (n=1)): 3.4 ng/mL | Tmax ([4]; CYP3A5 expressers (n=15)): 0.7 h | inter-individual variability for the CLsys ([4]; this study): 2.3 fold | inter-individual variability of CLpo ([4]; this study): 7.0 fold | CLpo (oral clearance) (CYP3A4/5; [13]): 4.6 L/h | Cmax /Dose (CYP3A4/5; [13]): 18.1 ng/mL | CLpo (oral clearance) (CYP3A4/5; [14]): 2.7 L/h | Cmax /Dose (CYP3A4/5; [14]): 21.2 ng/mL | Cmax /Dose (CYP3A4/5; geometric mean, after 200 mg KTZ, CYP3A5*1/*1): 9.6 ng/mL | Cmax /Dose (CYP3A4/5; geometric mean, after 200 mg KTZ, CYP3A5*1/*3 and *1/*6): 7.9 ng/mL | CLpo (oral clearance) (CYP3A4/5; [15]): 7.0 ± 2.0 L/h and 7.0 L/h | Cmax /Dose (CYP3A4/5; [15]): 12.3 ng/mL | CLpo (oral clearance) (CYP3A4/5; [16]): 13.3 ± 5.6 L/h | Cmax /Dose (CYP3A4/5; [16]): 8.5 ng/mL | CLpo (oral clearance) (CYP3A4/5; [17]): 8.2 L/h | Cmax /Dose (CYP3A4/5; [17]): 9.4 ng/mL | CLpo (oral clearance) (CYP3A4/5; [18]): 8.6 L/h | Cmax /Dose (CYP3A4/5; [18]): 8.9 ng/mL | CLpo (oral clearance) (CYP3A4/5; [19]): 4.9 ± 1.3 L/h and 4.9 L/h | Cmax /Dose (CYP3A4/5; [19]): 15.8 ng/mL | CLpo (oral clearance) (CYP3A4/5; [20]): 8.4 ± 3.5 L/h and 8.4 L/h | Cmax /Dose (CYP3A4/5; [20]): 9.1 ng/mL
